Measured values published in ChEMBL document CHEMBL6115011, “Optimizing biofilm inhibitors: Balancing activity and toxicity in 2N-aminated 5-aryl-2-aminoimidazoles” (Bioorg Med Chem, 2025).

Experiments:
Escherichia coli [1] = assay: Inhibition of biofilm formation in Escherichia coli TG1 at 25 degree C measured after 24 hrs by crystal violet staining based microplate reader analysis; type: functional, organism-based; conditions: TG1, 24 h
Escherichia coli [2] = assay: Antibacterial activity against Escherichia coli TG1 at 25 degree C measured after 24 hrs by crystal violet staining based microplate reader analysis; type: functional, organism-based; conditions: TG1, 24 h
Pseudomonas aeruginosa [3] = assay: Inhibition of biofilm formation in Pseudomonas aeruginosa PA14 at 25 degree C measured after 24 hrs by crystal violet staining based analysis; type: functional, organism-based; conditions: PA14, 24 h
Pseudomonas aeruginosa [4] = assay: Antibacterial activity against Pseudomonas aeruginosa PA14 at 25 degree C measured after 24 hrs by crystal violet staining based microplate reader analysis; type: functional, organism-based; conditions: PA14, 24 h
Staphylococcus aureus [5] = assay: Inhibition of biofilm formation in Staphylococcus aureus SH1000 at 25 degree C measured after 48 hrs by crystal violet staining based analysis; type: functional, organism-based; conditions: SH1000, 48 h
Staphylococcus aureus [6] = assay: Antibacterial activity against Staphylococcus aureus SH1000 at 25 degree C measured after 48 hrs by crystal violet staining based microplate reader analysis; type: functional, organism-based; conditions: SH1000, 48 h
[7] = Cytotoxicity against human PBMC cells assessed as survival rate at 400 uM measured after 72 hrs by trypan blue staining based assay relative to control; type: toxicity, cell-based; conditions: read-out: Survival
[8] = tested on: Staphylococcus epidermidis; assay: Inhibition of biofilm formation in Staphylococcus epidermidis at 25 degree C measured after 48 hrs by crystal violet staining based analysis; type: functional, organism-based
[9] = tested on: Staphylococcus epidermidis; assay: Antibacterial activity against Staphylococcus epidermidis at 25 degree C measured after 48 hrs by crystal violet staining based microplate reader analysis; type: functional, organism-based
Staphylococcus aureus [10] = assay: Inhibition of biofilm formation in methicillin-resistant Staphylococcus aureus at 25 degree C measured after 48 hrs by crystal violet staining based analysis; type: functional, organism-based
Staphylococcus aureus [11] = assay: Antibacterial activity against methicillin-resistant Staphylococcus aureus at 25 degree C measured after 48 hrs by crystal violet staining based microplate reader analysis; type: functional, organism-based
[12] = Cytotoxicity against human DND41 cells assessed as inhibition of cell growth measured after 72 hrs by CellTiter 96 Aqueous One Solution Cell Proliferation Assay; type: functional
K562 = assay: Cytotoxicity against human K562 cells assessed as inhibition of cell growth measured after 72 hrs by CellTiter 96 Aqueous One Solution Cell Proliferation Assay; type: functional; conditions: Homo sapiens, K562, 72 h
Z-138 = assay: Cytotoxicity against human Z138 cells assessed as inhibition of cell growth measured after 72 hrs by CellTiter 96 Aqueous One Solution Cell Proliferation Assay; type: functional
HL-60 = assay: Cytotoxicity against human HL-60 cells assessed as inhibition of cell growth measured after 72 hrs by CellTiter 96 Aqueous One Solution Cell Proliferation Assay; type: functional
[13] = Cytotoxicity against human PBMC cells assessed as survival rate at 25 uM measured after 72 hrs by trypan blue staining based assay relative to control; type: toxicity, cell-based; conditions: read-out: Survival
[14] = Cytotoxicity against human PBMC cells assessed as survival rate at 100 uM measured after 72 hrs by trypan blue staining based assay relative to control; type: toxicity, cell-based; conditions: read-out: Survival
[15] = Genotoxicity in human CAPAN-1 cells assessed as fold change at 400 uM measured after 3 hrs by Western blot analysis; type: toxicity, cell-based; conditions: capan-1, 3 h
CAPAN-1 = assay: Cytotoxicity against human CAPAN-1 cells assessed as inhibition of cell growth measured after 72 hrs by CellTiter 96 Aqueous One Solution Cell Proliferation Assay; type: functional
NCI-H460 = assay: Cytotoxicity against human NCI-H460 cells assessed as inhibition of cell growth measured after 72 hrs by CellTiter 96 Aqueous One Solution Cell Proliferation Assay; type: functional
LN-229 = assay: Cytotoxicity against human LN-229 cells assessed as inhibition of cell growth measured after 72 hrs by CellTiter 96 Aqueous One Solution Cell Proliferation Assay; type: functional; conditions: Homo sapiens, LN-229, 72 h
HCT-116 = assay: Cytotoxicity against human HCT-116 cells assessed as inhibition of cell growth measured after 72 hrs by CellTiter 96 Aqueous One Solution Cell Proliferation Assay; type: functional
[16] = Genotoxicity in human CAPAN-1 cells at 100 to 400 uM measured after 3 hrs by Western blot analysis; type: toxicity, cell-based; conditions: capan-1, 3 h, dose 100-400 µM
[17] = Genotoxicity in human CAPAN-1 cells assessed as fold change at 100 uM measured after 3 hrs by Western blot analysis; type: toxicity, cell-based; conditions: capan-1, 3 h
[18] = Toxicity in Caenorhabditis elegans CB5612 assessed as increase in food depletion delay by wide field microscopy based analysis

Compound | IC50 (Escherichia coli [1]) [µM] | IC50 (Escherichia coli [2]) [µM] | IC50 (Pseudomonas aeruginosa [3]) [µM] | IC50 (Pseudomonas aeruginosa [4]) [µM] | IC50 (Staphylococcus aureus [5]) [µM] | IC50 (Staphylococcus aureus [6]) [µM] | IC50 [8] [µM] | IC50 [9] [µM] | IC50 (Staphylococcus aureus [10]) [µM] | IC50 (Staphylococcus aureus [11]) [µM] | fold change (FC) [15] | also measured
CCCCCCCCNc1ncc(-c2ccc(Cl)cc2)[nH]1 | 8.42 | 72.3 | > 200 | 70.2 | 43.1 | 84.4 | – | – | – | – | – | –
NCCCCCCCCn1c(-c2ccccc2)cnc1NC1CCCC1 | 33.5 | 85.1 | 107 | 74.4 | 70.4 | 79.4 | – | – | – | – | – | –
CCCCCCCCn1c(-c2ccccc2)cnc1NC1CCCC1 | 6.55 | 8.37 | > 800 | 20.6 | 8.34 | 8.35 | – | – | – | – | – | –
NCCCCCCCCn1c(-c2ccc(Br)cc2)cnc1NC1CCCC1 | 25.2 | 43.4 | 147 | 61.4 | 167 | 56.1 | – | – | – | – | – | viability at 72 h, 400 µM [7]: 48%
NCCCCCCCCNc1ncc(-c2ccc(Cl)cc2)[nH]1 | 16.6 | 16.9 | 19.2 | 21 | 15.8 | 12.5 | 59.6 | 51.2 | 34.8 | 93.7 | 12.1 | CC50 [12]: 20 µM; CC50 (K562): 20 µM; CC50 (Z-138; 72 h): 20 µM; CC50 (Z-138; Homo sapiens, Z-138, 72 h): 21.6 µM; CC50 (HL-60): 20 µM; viability at 72 h, 25 µM [13]: 79.6%; viability at 72 h, 100 µM [14]: 17.5%; viability at 72 h, 400 µM [7]: 0.5%
NCCCCCCNc1ncc(-c2ccc(Cl)cc2)[nH]1 | 3.28 | 16.1 | 4.24 | 22.3 | 86.5 | 71.2 | 42.1 | 90.8 | 28.3 | 16.1 | 14.6 | CC50 (CAPAN-1): 40 µM; CC50 (NCI-H460): 40 µM; CC50 (LN-229): 40 µM; CC50 (K562): 36.2 µM; CC50 (Z-138; Homo sapiens, Z-138, 72 h): 11 µM; CC50 (HCT-116): 40 µM; CC50 (HL-60): 13.2 µM
NCCCCCCCNc1ncc(-c2ccccc2)[nH]1 | 17.3 | 39.7 | 12.4 | 33.3 | 64.7 | 106 | 12.3 | – | 48.9 | 72.6 | – | CC50 (CAPAN-1): 41.1 µM; CC50 (NCI-H460): 68.8 µM; Activity [16]: Non-toxic
NCCCCCCCCCCCCNc1ncc(-c2ccccc2)[nH]1 | 9.6 | 9.5 | 6.7 | 12.3 | 25.4 | 14 | 23.8 | 32 | 12.8 | 19.7 | 1.95 | viability at 72 h, 25 µM [13]: 6%; viability at 72 h, 100 µM [14]: < 50%; viability at 72 h, 400 µM [7]: 4.5%; fold change (FC) [17]: 2.75; Time [18]: 3.5 days
NCCCCCCCCCCCNc1ncc(-c2ccccc2)[nH]1 | 15.5 | 14.2 | 8.3 | 16.7 | 37.5 | 28.6 | 1.8 | 25 | 18.1 | 47.7 | 1.75 | Time [18]: 3 days
CCCCCCNc1ncc(-c2ccc(Cl)cc2)[nH]1 | 11.3 | 21.8 | 40.6 | 38.7 | 141 | 186 | – | – | – | – | – | –
CCCCCCCCn1c(-c2ccc(Br)cc2)cnc1NC1CCCC1 | 14 | 25.7 | > 800 | 25.2 | 63.2 | 33.1 | – | – | – | – | – | –
NCCCCCCNc1ncc(-c2ccc(Br)cc2)[nH]1 | 14.2 | 21 | 11.2 | 27.4 | 59.6 | 38.6 | 35.3 | 85.2 | 60 | 106 | 5.75 | CC50 (CAPAN-1): 40 µM; CC50 (NCI-H460): 40 µM; CC50 (LN-229): 40 µM; CC50 (HCT-116): 40 µM; fold change (FC) [17]: 2.3; Time [18]: 0.66 days
NCCCCCNc1ncc(-c2ccccc2)[nH]1 | 38.3 | 80 | 16.5 | 61.2 | 91.7 | 224 | 25.6 | – | 154 | 503 | – | Activity [16]: Non-toxic
NCCCCCCCCCCNc1ncc(-c2ccccc2)[nH]1 | 18.6 | 17.8 | 16.8 | 60.7 | 24.9 | 15.3 | 8.2 | 25.7 | 19.8 | 23.8 | 2 | CC50 (HCT-116): 46.9 µM; CC50 (HL-60): 47.1 µM
CCc1c2c(nc3ccc(O)cc13)-c1cc3c(c(=O)n1C2)COC(=O)[C@]3(O)CC [7-ETHYL-10-HYDROXYCAMPTOTHECIN] | – | – | – | – | – | – | – | – | – | – | 9 | fold change (FC) [17]: > 7
OB(O)O [BORIC ACID] | – | – | – | – | – | – | – | – | – | – | – | Time [18]: > 10 days
COc1cc([C@@H]2c3cc4c(cc3[C@@H](O[C@@H]3O[C@@H]5CO[C@@H](C)O[C@H]5[C@H](O)[C@H]3O)[C@H]3COC(=O)[C@H]23)OCO4)cc(OC)c1O [ETOPOSIDE] | – | – | – | – | – | – | – | – | – | – | > 8 | viability at 72 h, 25 µM [13]: < 67%; viability at 72 h, 100 µM [14]: 71%; viability at 72 h, 400 µM [7]: 38%; fold change (FC) [17]: 10
